Experimental data reported in PubChem BioAssay (NCI).
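Dose response: 5 concentrations. Exposure: 48 h. Format: 96-well plates. Endpoint: linear interpolation; highest concentration if not reached. Abbreviation: GI50, concentration required for 50% inhibition of growth. TGI: total growth inhibition.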

Key:
Assay in all cases: NCI anticancer screen, dose series, 48 h
CAKI-1 renal = tested on: CAKI-1 renal
DU-145 prostate = tested on: DU-145 prostate
EKVX NSCLC = tested on: EKVX NSCLC
HL-60(TB) leukemia = tested on: HL-60(TB) leukemia
HS 578T breast = tested on: HS 578T breast
MOLT-4 leukemia = tested on: MOLT-4 leukemia
NCI-H23 lung = tested on: NCI-H23 lung
SK-MEL-2 melanoma = tested on: SK-MEL-2 melanoma
SK-MEL-5 melanoma = tested on: SK-MEL-5 melanoma
SK-OV-3 ovarian = tested on: SK-OV-3 ovarian

SMILES	GI50 (CAKI-1 renal)	TGI (CAKI-1 renal)	GI50 (DU-145 prostate)	TGI (DU-145 prostate)	GI50 (EKVX NSCLC)	TGI (EKVX NSCLC)	GI50 (HL-60(TB) leukemia)	TGI (HL-60(TB) leukemia)	GI50 (HS 578T breast)	TGI (HS 578T breast)	GI50 (MOLT-4 leukemia)	TGI (MOLT-4 leukemia)	GI50 (NCI-H23 lung)	TGI (NCI-H23 lung)	GI50 (SK-MEL-2 melanoma)	TGI (SK-MEL-2 melanoma)	GI50 (SK-MEL-5 melanoma)	TGI (SK-MEL-5 melanoma)	GI50 (SK-OV-3 ovarian)	TGI (SK-OV-3 ovarian)
Cc1cc(I)cc(CN(C)CCCN2CCCCCCC2)c1O	13.8 µM	28 µM	17.8 µM	38 µM	16 µM	37.6 µM	2.26 µM	7.97 µM	15.7 µM	33.7 µM	3.7 µM	19.9 µM	18.1 µM	48.7 µM	21.8 µM	41.7 µM	6.94 µM	19.4 µM	18.7 µM	35.9 µM
COc1cc(C2CC(c3cccc(Br)c3)=NN2C(C)=O)cc(OC)c1OC (stereo not given)	0.282 µM	54.1 µM	0.371 µM	6.61 µM	1.48 µM	> 100 µM	0.191 µM	0.553 µM	0.397 µM	> 100 µM	0.368 µM	5.05 µM	1.66 µM	> 81.3 µM	3.51 µM	55.5 µM	0.289 µM	14.9 µM	0.379 µM	47.2 µM
CC(C)CCN1c2nc(Nc3cc(F)c(O)c(F)c3)ncc2N(C)C(=O)C1C (stereo not given)	2.84 µM	> 77.1 µM	6.41 µM	77.5 µM	9.26 µM	> 100 µM	2.14 µM	6.47 µM	3.22 µM	32.1 µM	4.1 µM	19.9 µM	5.27 µM	67.8 µM	3.14 µM	15.2 µM	2.65 µM	14 µM	2.89 µM	> 100 µM
C=C1CC[C@@H]2[C@](C)(COC(C)=O)[C@H](OC(C)=O)CC[C@@]2(C)[C@@H]1CC(Sc1ccccc1)C1=CCOC1=O (stereo not given in full)	2.77 µM	11.5 µM	1.41 µM	2.74 µM	2.43 µM	10.4 µM	0.43 µM	2.27 µM	4.89 µM	63.3 µM	1.48 µM	6.15 µM	1.78 µM	3.67 µM	2.25 µM	4.59 µM	1.42 µM	2.82 µM	4.44 µM	16.8 µM
O=C(Cc1ccc(/C=C/C(=O)c2ncc[nH]2)cc1)Nc1cc(F)c(F)c(F)c1	3.68 µM	7.05 µM	3.37 µM	7.08 µM	8.45 µM	> 25 µM	4.28 µM	11.2 µM	7.3 µM	> 25 µM	4.81 µM	16.1 µM	3.82 µM	9.11 µM	5.15 µM	15.7 µM	4.18 µM	8.19 µM	7.01 µM	> 25 µM
